{"source": "paper doi:10.1101/2024.10.13.618094", "about": "(bioRxiv, 2024)", "molecules": {"B1": {"name": "peptidyl α-ketoamide compound 3 (Ac-QMESA-CONH-(CH2)4-Ph) (peptide)", "peptide": "Ac-QMESA-{CONH‑(CH2)4‑Ph}", "modifications": "also: C-terminal α-ketoamide"}, "B2": {"name": "peptidyl α-ketoamide compound 2 (Ac-PGFSA-CONH-(CH2)4-Ph) (peptide)", "peptide": "Ac-PGFSA-{α‑ketoamide ‑CONH‑(CH2)4‑Ph}"}, "B3": {"name": "peptidyl α-ketoamide compound 4 (Ac-QMESA-CONH-CH(Bn)-CH2OBn) (peptide)", "peptide": "Ac-QMESA-{CONH‑CH(Bn)‑CH2OBn}", "modifications": "also: C-terminal α-ketoamide"}}, "key": {"[1]": {"system": "purified wild-type RHBDL4", "experiment": "TAMRA-FP active-site probe competition on purified RHBDL4", "type": "binding, human", "conditions": "purified RHBDL4, SDS-PAGE, Cy3 fluorescence; compared with inactive RHBDL4-S144A control", "from_the_text": "Inhibition of recombinant purified RHBDL4 proteolytic activity by N-substituted peptidyl α-ketoamides. (A) Proteolytic rates of the fluorescent substrate IQ6 by RHBDL4 in the presence of increasing concentrations of the general protease inhibitors, Dicyclocoumarin (DCI), tosyl-phenylalanine-chloromethyl ketone (TPCK) and 4-(2-aminoethyl) benzenesulfonyl fluoride (AEBSF). […] (D) Representative inhibition curve derived from measuring rates of RHBDL4 proteolysis of the fluorescent substrate IQ6 with increasing concentrations of compound 1a. (E) Same as (D), except inhibition curve was derived from using increasing concentrations of compound 1b. […] Reactions were quenched with 1×Laemmli buffer and loaded on 12% SDS-PAGE gel. Post-transfer membranes were visualized using a fluorescence Cy3 filter and by western blotting using an α-RHBDL4 antibody. For (A), (D), and (E), all inhibitors were pre-incubated with RHBDL4 for 1hr and allowed to react with the IQ6 substrate for 2 h. Assays were performed in triplicate, and data points represent the average ± standard deviation.\nIn vitro inhibition of RHBDL4 activity with TMED7-derived peptidyl α-ketoamides. […] (B) Representative inhibition curve derived from measuring rates of RHBDL4 proteolysis of the fluorescent substrate IQ6 with increasing concentrations of compound 3. (C) Same as (B), except inhibition curve was derived from using increasing concentrations of compound 4. […] Reactions were quenched with 1×Laemmli buffer and loaded on 12% SDS-PAGE gel. Post-transfer membranes were visualized using a fluorescence Cy3 filter and by western blotting using an α-RHBDL4 antibody. […] For (B) and (C), all inhibitors were pre-incubated with RHBDL4 for 1hr and allowed to react with the IQ6 substrate for 2 h. All assays were performed in triplicate, and data points represent the average ± standard deviation."}, "[2]": {"system": "RHBDL4-GFP in ER-enriched microsomes from HEK293T cells", "experiment": "TAMRA-FP competition label assay in ER-enriched microsomes", "type": "binding, human", "conditions": "100 μM compound, preincubated 1 h at 37°C; 500 nM TAMRA-FP for 2 h at 37°C; immunoprecipitation, Cy3 fluorescence", "description": "We aimed to investigate our RHBDL4 inhibitors in a more physiological context. […] To achieve this, we prepared ER-enriched microsomes from HEK293T cells transfected with RHBDL4-GFP, then pre-incubated microsomes with 100 μM of each compound, before TAMRA-FP was added to the microsomal fractions. RHBDL4-GFP was immunoprecipitated and visualized for TAMRA-FP fluorescence signal and western blotting. […] We surmise that the peptidyl α-ketoamides may have low membrane penetrability, making them weak inhibitors in microsome and cell-based assays. Further refinement is needed to design peptidyl α-ketoamides that effectively penetrate lipids and inhibit RHBDL4 activity in its native context.\nFigure 6. RHBDL4 inhibition studies in ER-enriched microsomes ER-enriched microsomes were preincubated with 100 μM of compounds or DMSO vehicle control followed by addition of 500 nM of TAMRA-FP serine hydrolase probe. […] TAMRA-FP labeling was analyzed via Cy3 filter followed by western blotting using α-GFP antibody.\nER-enriched microsomes were obtained by hypotonic swelling and centrifugation from Hek293T cells 24 h after transfection. […] TAMRA-FP-labelling was analyzed in the wet gel with a green light source (535 nm) and a Cy3 filter by detecting fluorescence emission using ImageQuant 800 Fluor CCD imager (Cytiva) followed by western blotting using a α-GFP antibody (Roche)."}, "[3]": {"target": "T1, recombinant human RHBDL4 (Homo sapiens, UniProt Q8TEB9)", "T1 construct": "The entire RHBDL4 and RHBDL4-S144A cDNAs were subcloned into the pcDNA3.1 vector; 6xHis (C, cleaved yes); made in house; host or cells: Freestyle 293-F cells (transient transfection, pcDNA3.1-HisA)", "T1 sequence (Q8TEB9 1-315)": "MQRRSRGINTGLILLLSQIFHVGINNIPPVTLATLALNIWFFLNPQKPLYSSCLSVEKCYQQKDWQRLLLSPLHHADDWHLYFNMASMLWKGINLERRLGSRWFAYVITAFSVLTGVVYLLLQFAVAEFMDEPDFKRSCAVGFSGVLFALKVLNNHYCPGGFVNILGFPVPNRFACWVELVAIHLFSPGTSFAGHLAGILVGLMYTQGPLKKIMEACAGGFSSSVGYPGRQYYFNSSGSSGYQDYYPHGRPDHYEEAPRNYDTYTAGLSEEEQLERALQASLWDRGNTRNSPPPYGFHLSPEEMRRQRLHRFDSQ", "experiment": "FRET-based cleavage assay with fluorogenic substrates (Michaelis–Menten kinetics)", "type": "biochemical", "conditions": "pH 8, 37°C, 0.1% DDM, Michaelis–Menten fit, triplicate, average ± SD", "description": "We employed a FRET-based assay to determine the activity of RHBDL4. The RHBDL4 proteolytic activity was tested against a suite of fluorescent, internally quenched (IQ) substrates that have been previously used to test the activity of rhomboid protease PARL (Fig. S2A)([Lysyk et al. 2021]). These substrates consist of 7–10-mer peptide sequences flanked by the fluorescent donor group 7-methoxycourmarin (mc) on the N terminus and quencher acceptor group dinitrophenol (dnp) on the C terminus (Fig. 2A) ([Arutyunova et al. 2018]). In general, the donor and acceptor are in proximity within the fluorogenic peptides and show low fluorescence due to internal quenching. Hydrolysis of the peptide bond between the donor and the acceptor leads to physical separation of the FRET pairs and increase in fluorescence, which would be proportional to RHBDL4 protease activity (Fig. 2A).\nThe reaction setup in our FRET assay enabled the direct determination of Michaelis–Menten kinetic parameters Km and kcat for the cleavage of IQ6, IQ41, and IQ46 by RHBDL4. Our fluorescence reading data were converted to μM/h using the standard calibration curve for all three IQ substrates, and the correction factor for the inner filter effect was applied. We confirmed that purified RHBDL4 followed Michaelis–Menten kinetics with KmIQ6=10.73±2μM , KmIQ41=5.63±2μM , and KmIQ46=7.19±1μM and kcatIQ6=7.33±0.6h^−1 , kcatIQ41=2.41±0.6h^−1 , and kcatIQ46=3.62±0.08h^−1 (Fig. 2B and S2B).\nThe enzymatic assay was performed as previously described (Arutyunova et al., 2014, [Arutyunova et al., 2018]). […] The FRET-based cleavage assay was conducted in a fluorescence multi-well plate reader (SynergyMx, BioTek, VT, USA). Upon excitation at 320 nm, the emission intensity at 400 nm was recorded for 2 h at minimal intervals under shaking conditions and plotted using the GraphPad PRISM software. The initial velocities were defined as the slopes of the curve of the generated product as a function of time. The plots of the generated product against the corresponding substrate concentration were fitted with the Michaelis–Menten equation. Catalytic parameters were extrapolated using GraphPad PRISM. […] The samples were desalted using C18 tips (Rainin, Columbus, OH, USA), eluted in 80% acetonitrile, and dried down in a vacuum centrifuge prior to mass spectrometry analysis.\nAll the calculations for Km, Vmax, and Kcat for RHBDL4 and its mutants were performed using GraphPad PRISM."}, "[4]": {"system": "RHBDL4", "experiment": "1.5 μM of wild-type RHBDL4 in activity buffer containing 20 mM citrate phosphate pH 8.0, 150 mM NaCl, 20% (v/v) glycerol, and 0.1% (w/v) DDM", "conditions": "human, 37°C, up to 2 h"}, "[5]": {"system": "RHBDL4", "experiment": "1.5 μM of wild-type RHBDL4 (purified recombinant)", "conditions": "human, room temperature, up to 4 h"}, "[6]": {"target": "T2, rhomboid protease RHBDL4, wild type (recombinant, purified) (human) (UniProt Q8TEB9)", "T2 sequence": "T1 sequence (Q8TEB9 1-315)"}, "[7]": {"target": "T3, rhomboid protease RHBDL4, wild type (recombinant, purified) (human, UniProt Q8TEB9 1-315)", "T3 sequence (looked up)": "T1 sequence (Q8TEB9 1-315)", "experiment": "cell-based or functional assay"}}, "note": "“Also recorded” adds a separate entry of the source. *1 amine or outer side, *2 acyl side, *3 side chain or, on linkers, in order; H or OH if unused. Where a SMILES comes first, the peptide text is derived from it. [ ]: non-standard residue; d: D form. The star is where a group is joined. Pheol(OBn) = c1ccc(COC[C@H](Cc2ccccc2)N*)cc1; Dnp = O=[N+]([O-])c1ccc(*)c([N+](=O)[O-])c1; NH(4-phenylbutyl) = c1ccc(CCCCN*)cc1; Mca = COc1ccc2c(CC(=O)*)cc(=O)oc2c1; X1 = C[C@H](N[*:1])C(=O)C(=O)[*:2]"}
{"molecule": "CC(=O)N[C@H](C(=O)N[C@@H](CCCNC(=N)N)C(=O)NC(Cc1c[nH]cn1)C(=O)N[C@@H](C)C(=O)C(=O)N[C@H](COCc1ccccc1)Cc1ccccc1)C(C)C", "note": "(some centres unmarked) [Compound 1a]", "values": [{"measurement": "Competition with TAMRA-FP probe for the RHBDL4 catalytic site (fluorescent signal)", "setting": "[1]", "value": "significant reduction of fluorescent signal"}]}
{"molecule": "CSCC[C@H](NC(=O)[C@H](CCC(N)=O)NC(C)=O)C(=O)N[C@@H](CCC(=O)O)C(=O)N[C@@H](CO)C(=O)N[C@@H](C)C(=O)C(=O)NCCCCc1ccccc1", "note": "[Compound 3] (Ac-QMES[X1]-{NH(4-phenylbutyl)})", "values": [{"measurement": "Competition with TAMRA-FP probe for the RHBDL4 catalytic site (fluorescent signal)", "setting": "[1]", "value": "reduction in overall fluorescent signal"}, {"measurement": "Effect on TAMRA-FP labeling of RHBDL4-GFP in microsomes", "setting": "[2]", "value": "reduced"}]}
{"molecule": "CSCC[C@H](NC(=O)[C@H](CCC(N)=O)NC(C)=O)C(=O)N[C@@H](CCC(=O)O)C(=O)N[C@@H](CO)C(=O)N[C@@H](C)C(=O)C(=O)N[C@H](COCc1ccccc1)Cc1ccccc1", "note": "[Compound 4] (Ac-QMES[X1]-{Pheol(OBn)})", "values": [{"measurement": "Competition with TAMRA-FP probe for the RHBDL4 catalytic site (fluorescent signal)", "setting": "[1]", "value": "reduction in overall fluorescent signal"}, {"measurement": "Effect on TAMRA-FP labeling of RHBDL4-GFP in microsomes", "setting": "[2]", "value": "reduced"}]}
{"molecule": "Ac-QMESA-4mc [KSp207, TMED7-derived fluorescent substrate Ac-QMESA-4mc]", "values": [{"measurement": "Km", "setting": "[3]", "value": "3.09 ± 1", "unit": "µM"}]}
{"molecule": "Mca-Arg-Pro-Pro-Gly-Phe-Ser-Ala-Phe-Lys (DNP)-OH (Mca-RPPGFSAFK(Dnp)-OH; SMILES COc1ccc2c(CC(=O)N[C@@H](CCCNC(=N)N)C(=O)N3CCC[C@H]3C(=O)N3CCC[C@H]3C(=O)NCC(=O)N[C@@H](Cc3ccccc3)C(=O)N[C@@H](CO)C(=O)N[C@@H](C)C(=O)N[C@@H](Cc3ccccc3)C(=O)N[C@@H](CCCCNc3ccc([N+](=O)[O-])cc3[N+](=O)[O-])C(=O)O)cc(=O)oc2c1) [IQ6, fluorescent internally quenched substrate mca-…(dnp)]", "values": [{"measurement": "Km", "setting": "[3]", "value": "10.7 ± 2", "unit": "µM"}]}
{"molecule": "mca-AVFLSAVAG(dnp)", "values": [{"measurement": "not cleaved", "setting": "[4]", "value": "did not observe any RHBDL4-catalyzed activity"}]}
{"molecule": "mca-FLVRGK(dnp) [IQ46, fluorescent internally quenched substrate mca-FLVRGK(dnp)]", "values": [{"measurement": "Km", "setting": "[3]", "value": "7.19 ± 1", "unit": "µM"}]}
{"molecule": "mca-FVTKGK(dnp) [IQ41, fluorescent internally quenched substrate mca-FVTKGK(dnp)]", "values": [{"measurement": "Km", "setting": "[3]", "value": "5.63 ± 2", "unit": "µM"}]}
{"molecule": "mca-RPKPYAvWMK(dnp)", "values": [{"measurement": "not cleaved", "setting": "[4]", "value": "did not observe any RHBDL4-catalyzed activity"}]}
{"molecule": "mca-RPPGFSAFK(dnp)", "values": [{"measurement": "cleaved bond", "setting": "[5]", "value": "Ala-Phe, 4 h; also recorded: Ser-Ala, 4 h"}]}
{"molecule": "peptidyl α-ketoamide compound 1a (Ac-VRHA-CONH-CH(Bn)-CH2OBn) (peptide)", "values": [{"measurement": "IC50 of inhibition of RHBDL4 proteolysis of the fluorescent substrate IQ6 (in vitro FRET-based cleavage assay; 1 h pre-incubation, 2 h reaction)", "setting": "[6]", "value": 2310, "unit": "nM"}]}
{"molecule": "peptidyl α-ketoamide compound 1b (Ac-VRHA-CONH-CH(Bn)-CH2OBn) (peptide)", "values": [{"measurement": "IC50 of inhibition of RHBDL4 proteolysis of the fluorescent substrate IQ6 (in vitro FRET-based cleavage assay; 1 h pre-incubation, 2 h reaction)", "setting": "[6]", "value": 6100, "unit": "nM"}]}
{"molecule": "B1", "values": [{"measurement": "IC50 of inhibition of RHBDL4 proteolysis of the fluorescent substrate IQ6 (in vitro FRET-based cleavage assay; 1 h pre-incubation, 2 h reaction)", "setting": "[7]", "value": 54, "unit": "nM"}]}
{"molecule": "B2", "values": [{"measurement": "IC50 of inhibition of RHBDL4 activity (in vitro FRET-based cleavage assay)", "setting": "[6]", "value": 3400, "unit": "nM"}]}
{"molecule": "B3", "values": [{"measurement": "IC50 of inhibition of RHBDL4 proteolysis of the fluorescent substrate IQ6 (in vitro FRET-based cleavage assay; 1 h pre-incubation, 2 h reaction)", "setting": "[7]", "value": 85, "unit": "nM"}]}
